Results taken from US20230116972A1, “CD38 MODULATORS AND METHODS OF USE THEREOF” (Cytokinetics, Inc., priority 2021, published 2023).

Experiments:
mouse CD38 = molecular target: T1, mouse CD38 (Mus musculus, UniProt P56528); assay: mouse recombinant CD38 enzyme assay (hydrolysis of NAD+); format: biochemical; conditions: read-out: mCD38 BioChem IC50
T1 sequence (P56528 1-304): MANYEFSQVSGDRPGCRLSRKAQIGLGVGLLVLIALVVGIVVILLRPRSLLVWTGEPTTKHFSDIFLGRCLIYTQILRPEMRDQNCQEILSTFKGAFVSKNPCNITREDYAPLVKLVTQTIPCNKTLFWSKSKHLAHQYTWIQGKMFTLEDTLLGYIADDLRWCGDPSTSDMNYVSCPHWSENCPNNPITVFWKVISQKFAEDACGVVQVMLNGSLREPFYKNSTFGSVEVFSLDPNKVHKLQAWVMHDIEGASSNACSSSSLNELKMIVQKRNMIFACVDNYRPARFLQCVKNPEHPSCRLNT
Outline: (§1)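 Residual substrate after a one-hour room-temperature incubation of recombinant CD38 with NAD+ and test compound is measured by an ADH/diaphorase coupled resorufin signal (540 nm excitation, 590 nm emission); reduced NAD+ consumption reflects inhibition.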

[1] = molecular target: T2, endogenous CD38 in HL60 cells (Homo sapiens, UniProt P28907); assay: cellular CD38 assay in HL60 cells (cellular NAD levels); format: cell-based; conditions: all-trans retinoic acid, 24 hours, read-out: hCD38 HL60 ATRA NAD Cell Diaphorase IC50
T2 construct: endogenous in cells; host or cells: HL60 (leukemic cells, treated with all-trans retinoic acid)
T2 sequence (P28907 1-300): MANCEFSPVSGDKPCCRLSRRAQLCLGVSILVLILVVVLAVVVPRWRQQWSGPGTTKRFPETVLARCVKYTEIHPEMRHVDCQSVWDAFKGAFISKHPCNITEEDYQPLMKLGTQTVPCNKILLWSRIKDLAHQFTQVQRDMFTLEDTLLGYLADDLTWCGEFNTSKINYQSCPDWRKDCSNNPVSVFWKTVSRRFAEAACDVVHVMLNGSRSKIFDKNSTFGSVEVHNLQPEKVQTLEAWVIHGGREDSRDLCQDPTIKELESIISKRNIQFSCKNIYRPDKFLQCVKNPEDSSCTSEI
Procedure: The compounds described herein were also assayed for their ability to inhibit the endogenous CD38 in a native cellular environment in the cellular CD38 assay, which measures the ability of the compound to modulate cellular NAD levels. […] The assays were initiated by plating 20 μL of HL60 cells in culture medium, at a density of 20000 cells per well to a 384-well Corning™ Multiwell Plates. Compounds in DMSO were added to the plates in a volume of 120 nL using the Labcyte Echo Liquid Handlers. […] The plates are then incubated for 24 hours. 50 μL of a readout-solution containing 0.2 U/mL Diaphorase enzyme, 40 uM resazurin, 10 uM FMN, 0.8 U/mL Alcohol dehydrogenase, 3% ethanol, 0.4 mg/mL bovine serum albumin, 0.2% Triton X-100 in 100 mM Tris-HCl, 30 mM EDTA, pH 8.4. The plates were read for fluorescence (Excitation/Emission=540 nm/590 nm) using an EnVision plate reader after 60 mins of incubation at ambient temperature. Note that, in Table 5, the “Compound No” corresponds to the compound numbers in Table 1.

human CD38 = molecular target: T3, human CD38 (Homo sapiens, UniProt P28907); assay: human recombinant CD38 enzyme assay (hydrolysis of NAD+); format: biochemical; conditions: human recombinant CD38, 0.4 nM enzyme, 62.5 μM NAD+; read-out: hCD38 BioChem IC50
T3 sequence (P28907 1-300): T2 sequence (P28907 1-300)
Outline: as §1

Row | IC50 (mouse CD38) | IC50 [1] | IC50 (human CD38) | SMILES
1 | 161 nM | 10600 nM | 271 nM | O=C(N[C@H]1CC[C@](O)(c2ccccc2)CC1)c1nccc(-n2ccnc2)n1 [Compound 260, N-((1s,4s)-4-hydroxy-4-phenylcyclohexyl)-4-(1H-imidazol-1-yl)pyrimidine-2-carboxamide]
2 | 3.4 nM | 2620 nM | 4.1 nM | Cn1cncc1-c1nc(C(=O)N[C@H]2C[C@H](Oc3ccccc3)C2)cc(C2CCOCC2)n1 [Compound 291, 2-(1-methyl-1H-imidazol-5-yl)-N-((1r,3r)-3-phenoxycyclobutyl)-6-(tetrahydro-2H-pyran-4-yl)pyrimidine-4-carboxamide]
3 | 21.3 nM | 2370 nM | 28.8 nM | Cn1cncc1-c1ccnc(C(=O)N[C@H]2C[C@H](c3ccc(F)cc3)C2)n1 [Compound 242, N-((1r,3r)-3-(4-fluorophenyl)cyclobutyl)-4-(1-methyl-1H-imidazol-5-yl)pyrimidine-2-carboxamide]
4 | 61 nM | 6200 nM | 263 nM | CO[C@H]1CC[C@H](NC(=O)c2nc(-n3ccnc3)ccc2C)CC1 [Compound 100, 6-(1H-imidazol-1-yl)-N-(4-methoxycyclohexyl)-3-methylpicolinamide]
5 | 99 nM | 10800 nM | 361 nM | O=C(N[C@H]1C[C@H](Oc2ccccc2)C1)c1nccc(-n2ccnc2)n1 [Compound 219, 4-(1H-imidazol-1-yl)-N-((1r,3r)-3-phenoxycyclobutyl)pyrimidine-2-carboxamide]
6 | 19 nM | 1360 nM | 41 nM | Cn1cncc1-c1ccnc(C(=O)N[C@H]2CC[C@H](C(F)F)CC2)n1 [Compound 75, N-((1r,4r)-4-(difluoromethyl)cyclohexyl)-4-(1-methyl-1H-imidazol-5-yl)pyrimidine-2-carboxamide]
7 | 20 nM | 2550 nM | 108 nM | O=C(Nc1ccc(C(F)F)nc1)c1cc(C2CC2)nc(-c2cncs2)n1 [Compound 110, 6-cyclopropyl-N-(6-(difluoromethyl)pyridin-3-yl)-2-(thiazol-5-yl)pyrimidine-4-carboxamide]
8 | 4.5 nM | 3280 nM | 35.3 nM | CO[C@H]1CC[C@H](NC(=O)c2nc(C)cc(-c3cncn3C)n2)CC1 [Compound 191, N-((1r,4r)-4-methoxycyclohexyl)-4-methyl-6-(1-methyl-1H-imidazol-5-yl)pyrimidine-2-carboxamide]
9 | 25 nM | 1440 nM | 15 nM | Cn1cncc1-c1cccc(C(=O)Nc2ccc(C(F)(F)F)nc2)n1 [Compound 71, 6-(1-methyl-1H-imidazol-5-yl)-N-(6-(trifluoromethyl)pyridin-3-yl)picolinamide]
10 | 6 nM | 1320 nM | 16 nM | O=C(N[C@H]1CC[C@H](C(F)F)CC1)c1ccnc(-n2ccnc2)n1 [Compound 68, N-((1r,4r)-4-(difluoromethyl)cyclohexyl)-2-(1H-imidazol-1-yl)pyrimidine-4-carboxamide]
11 | 8.8 nM | 8570 nM | 123 nM | CO[C@H]1CC[C@H](NC(=O)c2nc(C3CC3)cc(-n3ccnc3)n2)CC1 [Compound 204, 4-cyclopropyl-6-(1H-imidazol-1-yl)-N-((1r,4r)-4-methoxycyclohexyl)pyrimidine-2-carboxamide]
12 | 1580 nM | 8690 nM | 352 nM | O=C(Nc1ccc(C(F)(F)F)nc1)c1cc(-n2ccnc2)ccn1 [Compound 6, 4-(1H-imidazol-1-yl)-N-(6-(trifluoromethyl)pyridin-3-yl)picolinamide]
13 | 1 nM | 770 nM | 5 nM | Cn1cncc1-c1nccc(C(=O)N[C@H]2CC[C@H](C(F)F)CC2)n1 [Compound 70, N-((1r,4r)-4-(difluoromethyl)cyclohexyl)-2-(1-methyl-1H-imidazol-5-yl)pyrimidine-4-carboxamide]
14 | 19.3 nM | 3190 nM | 25.4 nM | O=C(Nc1ccc(C(F)(F)F)nc1)c1cc(C2CCOCC2)nc(-n2ccnc2)n1 [Compound 196, 2-(1H-imidazol-1-yl)-6-(tetrahydro-2H-pyran-4-yl)-N-(6-(trifluoromethyl)pyridin-3-yl)pyrimidine-4-carboxamide]
15 | 3 nM | 3730 nM | 15 nM | CO[C@H]1CC[C@H](NC(=O)c2cc(C(C)C)nc(-c3cncn3C)n2)CC1 [Compound 171, 6-isopropyl-N-((1r,4r)-4-methoxycyclohexyl)-2-(1-methyl-1H-imidazol-5-yl)pyrimidine-4-carboxamide]
16 | 36.4 nM | 5580 nM | 71.6 nM | CCO[C@H]1CC[C@H](NC(=O)c2nccc(-n3ccnc3)n2)CC1 [Compound 258, N-((1r,4r)-4-ethoxycyclohexyl)-4-(1H-imidazol-1-yl)pyrimidine-2-carboxamide]
17 | 63.6 nM | 7160 nM | 111 nM | O=C(NC1CCC(F)(F)CC1)c1cc(C2CCOCC2)nc(-n2ccnc2)n1 [Compound 194, N-(4,4-difluorocyclohexyl)-2-(1H-imidazol-1-yl)-6-(tetrahydro-2H-pyran-4-yl)pyrimidine-4-carboxamide]
18 | 15.4 nM | 2210 nM | 31.5 nM | Cn1cncc1-c1ccnc(C(=O)N[C@H]2CC[C@H](OC(F)F)CC2)n1 [Compound 275, N-((1r,4r)-4-(difluoromethoxy)cyclohexyl)-4-(1-methyl-1H-imidazol-5-yl)pyrimidine-2-carboxamide]
19 | 1 nM | 1240 nM | 8.6 nM | Cn1cncc1-c1nc(C(=O)Nc2ccc(C(F)(F)F)nc2)cc(C2CCC(F)(F)CC2)n1 [Compound 285, 6-(4,4-difluorocyclohexyl)-2-(1-methyl-1H-imidazol-5-yl)-N-(6-(trifluoromethyl)pyridin-3-yl)pyrimidine-4-carboxamide]
20 | 13.3 nM | 2060 nM | 27.9 nM | Cn1cncc1-c1ccnc(C(=O)N[C@H]2C[C@H](c3ccccc3F)C2)n1 [Compound 240, N-((1r,3r)-3-(2-fluorophenyl)cyclobutyl)-4-(1-methyl-1H-imidazol-5-yl)pyrimidine-2-carboxamide]
21 | 122 nM | 3990 nM | 296 nM | O=C(NC1CCOCC1)c1cccc(-n2ccnc2)n1 [Compound 12, 6-(1H-imidazol-1-yl)-N-(tetrahydro-2H-pyran-4-yl)picolinamide]
22 | 14 nM | 187 nM | 5 nM | O=C(Nc1cccnc1)c1nccc(-n2ccnc2)n1 [Compound 36, 4-(1H-imidazol-1-yl)-N-(pyridin-3-yl)pyrimidine-2-carboxamide]
23 | 4 nM | 298 nM | 6 nM | O=C(Nc1ccnc(C(F)F)c1)c1cccc(-n2ccnc2)n1 [Compound 39, N-(2-(difluoromethyl)pyridin-4-yl)-6-(1H-imidazol-1-yl)picolinamide]
24 | 1010 nM | 3060 nM | 345 nM | Cc1ccc(NC(=O)c2cc(-n3ccnc3)ccn2)cn1 [Compound 2, 4-(1H-imidazol-1-yl)-N-(6-methylpyridin-3-yl)picolinamide]
